Patent WO2007026771A1, “点滴用注射剤” (Ono Pharmaceutical Co Ltd, priority 2005, dated 2007)
Entries after “also recorded” stand apart in the source; their conditions may differ.

Key:
[1] = biological target: poly(ADP-ribose) polymerase (PARP) [ポリ(ADP−リボース)ポリメラーゼ] (Homo sapiens, UniProt P09874); conditions: cited from earlier work
[2] = pH of supernatant of aqueous suspension of compound A; type: physicochemical
[3] = Solubility of compound A in water at various pH values (5℃, 24 h, HPLC); type: physicochemical

Chain of poly(ADP-ribose) polymerase (PARP) [ポリ(ADP−リボース)ポリメラーゼ] (P09874 whole entry): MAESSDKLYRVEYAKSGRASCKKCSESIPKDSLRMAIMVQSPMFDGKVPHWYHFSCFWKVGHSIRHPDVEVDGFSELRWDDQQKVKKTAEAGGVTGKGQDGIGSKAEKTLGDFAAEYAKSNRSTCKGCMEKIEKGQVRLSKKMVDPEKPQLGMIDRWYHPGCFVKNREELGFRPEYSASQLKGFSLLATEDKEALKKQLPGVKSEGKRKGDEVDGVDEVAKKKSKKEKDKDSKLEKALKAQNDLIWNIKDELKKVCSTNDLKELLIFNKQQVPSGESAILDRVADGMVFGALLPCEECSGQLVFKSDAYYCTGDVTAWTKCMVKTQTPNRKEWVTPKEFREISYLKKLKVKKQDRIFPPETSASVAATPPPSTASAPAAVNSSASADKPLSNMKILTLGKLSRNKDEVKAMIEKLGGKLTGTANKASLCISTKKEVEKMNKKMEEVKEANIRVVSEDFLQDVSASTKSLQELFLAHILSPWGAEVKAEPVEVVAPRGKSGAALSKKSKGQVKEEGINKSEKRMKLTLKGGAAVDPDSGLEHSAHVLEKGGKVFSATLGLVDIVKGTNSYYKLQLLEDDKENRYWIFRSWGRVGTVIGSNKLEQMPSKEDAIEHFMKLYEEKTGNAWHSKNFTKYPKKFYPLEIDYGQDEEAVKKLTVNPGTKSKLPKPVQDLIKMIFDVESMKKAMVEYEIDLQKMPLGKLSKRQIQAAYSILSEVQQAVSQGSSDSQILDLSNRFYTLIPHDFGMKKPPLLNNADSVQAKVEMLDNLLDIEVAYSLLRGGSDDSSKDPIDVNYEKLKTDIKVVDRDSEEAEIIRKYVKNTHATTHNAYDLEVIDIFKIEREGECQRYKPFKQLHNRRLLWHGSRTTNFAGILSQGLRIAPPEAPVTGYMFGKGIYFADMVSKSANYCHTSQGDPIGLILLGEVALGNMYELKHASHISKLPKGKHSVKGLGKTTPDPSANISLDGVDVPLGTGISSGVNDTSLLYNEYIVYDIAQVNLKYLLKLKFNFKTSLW

Which toxicity (Toxicity of compound A) does the source give for `O=C(Cc1n[nH]c(=O)c2c1CCCC2)NCCCCN1CCOCC1` [化合物A, 4−(N−(4−(モルホリン−4−イル)ブチル)カルバモイルメチル)−5,6,7,8−テトラヒドロフタラジン−1(2H)−オン] here?
The toxicity was “非常に低い”.

And the PARP inhibitory activity [1]?
Its PARP inhibitory activity is “阻害活性を有する; also recorded: PARP阻害活性を有する”.

And the “pH of supernatant of aqueous suspension” value [2]?
The value was ~9.4.

And the dissolution in water ([3]; near neutral (e.g. pH 6 or above))?
Its dissolution in water is “速やかに水に溶解せず”.

What about the solubility in water ([3]; pH 8 or above) of the same molecule?
The solubility in water was “低い”.

And the dissolution in water ([3]; pH about 5 or below)?
Its dissolution in water is “速やかに水に溶解する”.

What about the solubility in water ([3]; pH about 7 or below (adjusted)) of the same molecule?
Its solubility in water is “著しく上昇; also recorded: 著しく向上”.

What about the solubility in water ([3]; water) of the same molecule?
The solubility in water was “極めて低く”.
